Assay results published in ChEMBL document CHEMBL2434882, “A novel [1,2,4] triazolo [1,5-a] pyrimidine-based phenyl-linked steroid dimer: synthesis and its cytotoxic activity” (Eur J Med Chem, 2013).
The source made the active and inactive calls. No cut-off for these calls is given here.

What was measured:
ECa-109 cell line [1] = assay: Induction of apoptosis in human EC109 cells assessed as early apoptotic cells at 5 uM after 24 hrs by annexin V-FITC/propidium iodide staining-based flow cytometric analysis (reference value: 3.8%); format: functional
[2] = Cell cycle arrest in human EC109 cells assessed as accumulation at S phase at 10 uM after 12 hrs by propidium iodide staining-based flow cytometric analysis (reference value: 33.29%); format: functional; conditions: ECa-109
[3] = Cell cycle arrest in human EC109 cells assessed as accumulation at G0/G1 phase at 10 uM after 12 hrs by propidium iodide staining-based flow cytometric analysis (reference value: 50.87%); format: functional; conditions: ECa-109
[4] = Cell cycle arrest in human EC109 cells assessed as accumulation at G0/G1 phase at 2.5 uM after 12 hrs by propidium iodide staining-based flow cytometric analysis (reference value: 50.87%); format: functional; conditions: ECa-109
[5] = Cell cycle arrest in human EC109 cells assessed as accumulation at G2/M phase at 5 uM after 24 hrs by propidium iodide staining-based flow cytometric analysis (reference value: 6.31%); format: functional; conditions: ECa-109
[6] = Cell cycle arrest in human EC109 cells assessed as accumulation at S phase at 2.5 uM after 24 hrs by propidium iodide staining-based flow cytometric analysis (reference value: 37.99%); format: functional; conditions: ECa-109
ECa-109 cell line [7] = assay: Induction of apoptosis in human EC109 cells assessed as live cells at 5 uM after 12 hrs by annexin V-FITC/propidium iodide staining-based flow cytometric analysis (reference value: 92.1%); format: functional
[8] = Cell cycle arrest in human EC109 cells assessed as accumulation at S phase at 5 uM after 12 hrs by propidium iodide staining-based flow cytometric analysis (reference value: 33.29%); format: functional; conditions: ECa-109
ECa-109 cell line [9] = assay: Induction of apoptosis in human EC109 cells assessed as live cells at 10 uM after 12 hrs by annexin V-FITC/propidium iodide staining-based flow cytometric analysis (reference value: 92.1%); format: functional
[10] = Cell cycle arrest in human EC109 cells assessed as accumulation at G0/G1 phase at 2.5 uM after 24 hrs by propidium iodide staining-based flow cytometric analysis (reference value: 51.57%); format: functional; conditions: ECa-109
ECa-109 cell line [11] = assay: Induction of apoptosis in human EC109 cells assessed as live cells at 2.5 uM after 24 hrs by annexin V-FITC/propidium iodide staining-based flow cytometric analysis (reference value: 93.6%); format: functional
ECa-109 cell line [12] = assay: Induction of apoptosis in human EC109 cells assessed as activation of caspase-3/9 at 5 to 10 uM after 24 hrs by Western blot analysis; format: functional, cell-based
ECa-109 cell line [13] = assay: Induction of apoptosis in human EC109 cells assessed as damaged cells at 10 uM after 12 hrs by annexin V-FITC/propidium iodide staining-based flow cytometric analysis (reference value: 0.4%); format: functional
ECa-109 cell line [14] = assay: Induction of apoptosis in human EC109 cells assessed as change in cellular morphology at 1.25 to 20 uM after 24 hrs by inverted microscopic analysis; format: functional, cell-based
[15] = Disruption of mitochondrial membrane potential in human EC109 cells at 5 uM after 24 hrs by JC1 staining-based flow cytometric analysis (reference value: 8.1%); format: functional, ECa-109
ECa-109 cell line [16] = assay: Induction of apoptosis in human EC109 cells assessed as late apoptotic cells at 5 uM after 24 hrs by annexin V-FITC/propidium iodide staining-based flow cytometric analysis (reference value: 2.5%); format: functional
ECa-109 cell line [17] = assay: Induction of apoptosis in human EC109 cells assessed as late apoptotic cells at 2.5 uM after 12 hrs by annexin V-FITC/propidium iodide staining-based flow cytometric analysis (reference value: 1.4%); format: functional
[18] = Cytotoxicity against human L02 cells assessed as growth inhibition after 72 hrs by MTT assay; format: cell-based; conditions: L02, 72 h
ECa-109 cell line [19] = assay: Induction of apoptosis in human EC109 cells assessed as late apoptotic cells at 5 uM after 12 hrs by annexin V-FITC/propidium iodide staining-based flow cytometric analysis (reference value: 1.4%); format: functional
[20] = Cell cycle arrest in human EC109 cells assessed as accumulation at G2/M phase at 2.5 to 10 uM by propidium iodide staining-based flow cytometric analysis; format: functional; conditions: ECa-109, TDE = time-dependent effect
ECa-109 cell line [21] = assay: Induction of apoptosis in human EC109 cells assessed as nuclear condensation at 1.25 to 20 uM after 24 hrs by Hoechst 33258 staining-based fluorescence microscopic analysis; format: functional, cell-based
[22] = Cell cycle arrest in human EC109 cells assessed as accumulation at G2/M phase at 10 uM after 24 hrs by propidium iodide staining-based flow cytometric analysis (reference value: 6.31%); format: functional; conditions: ECa-109
[23] = Cell cycle arrest in human EC109 cells assessed as accumulation at G0/G1 phase at 10 uM after 24 hrs by propidium iodide staining-based flow cytometric analysis (reference value: 51.57%); format: functional; conditions: ECa-109
[24] = Cell cycle arrest in human EC109 cells assessed as accumulation at G0/G1 phase at 5 uM after 24 hrs by propidium iodide staining-based flow cytometric analysis (reference value: 51.57%); format: functional; conditions: ECa-109
[25] = Downregulation of MDM2 protein expression in human EC109 cells at 5 to 10 uM after 24 hrs by Western blot analysis; format: functional, cell-based; conditions: ECa-109
ECa-109 cell line [26] = assay: Induction of apoptosis in human EC109 cells assessed as late apoptotic cells at 40 uM after 24 hrs by annexin V-FITC/propidium iodide staining-based flow cytometric analysis (reference value: 2.5%); format: functional
ECa-109 cell line [27] = assay: Induction of apoptosis in human EC109 cells assessed as early apoptotic cells at 40 uM after 12 hrs by annexin V-FITC/propidium iodide staining-based flow cytometric analysis (reference value: 6.1%); format: functional
ECa-109 cell line [28] = assay: Induction of apoptosis in human EC109 cells assessed as early apoptotic cells at 40 uM after 24 hrs by annexin V-FITC/propidium iodide staining-based flow cytometric analysis (reference value: 3.8%); format: functional
[29] = Cell cycle arrest in human EC109 cells assessed as accumulation at S phase at 10 uM after 24 hrs by propidium iodide staining-based flow cytometric analysis (reference value: 37.99%); format: functional; conditions: ECa-109
ECa-109 cell line [30] = assay: Induction of apoptosis in human EC109 cells assessed as early apoptotic cells at 20 uM after 12 hrs by annexin V-FITC/propidium iodide staining-based flow cytometric analysis (reference value: 6.1%); format: functional
ECa-109 cell line [31] = assay: Induction of apoptosis in human EC109 cells assessed as late apoptotic cells at 2.5 uM after 24 hrs by annexin V-FITC/propidium iodide staining-based flow cytometric analysis (reference value: 2.5%); format: functional
[32] = Cytotoxicity against human L02 cells assessed as cell viability at 20 uM after 72 hrs by MTT assay relative to control; format: cell-based; conditions: read-out: Activity
ECa-109 cell line [33] = assay: Induction of apoptosis in human EC109 cells assessed as late apoptotic cells at 20 uM after 12 hrs by annexin V-FITC/propidium iodide staining-based flow cytometric analysis (reference value: 1.4%); format: functional
ECa-109 cell line [34] = assay: Induction of apoptosis in human EC109 cells assessed as late apoptotic cells at 10 uM after 24 hrs by annexin V-FITC/propidium iodide staining-based flow cytometric analysis (reference value: 2.5%); format: functional
ECa-109 cell line [35] = assay: Induction of apoptosis in human EC109 cells assessed as damaged cells at 2.5 uM after 24 hrs by annexin V-FITC/propidium iodide staining-based flow cytometric analysis (reference value: 0.1%); format: functional

For `C[C@]12CC[C@H](O)CC1=CC[C@@H]1[C@@H]2CC[C@]2(C)c3nc4ncnn4c(-c4cccc(-c5c6c(nc7ncnn57)[C@@]5(C)CC[C@H]7[C@@H](CC=C8C[C@@H](O)CC[C@@]87C)[C@@H]5C6)c4)c3C[C@@H]12`, the Activity (ECa-109 cell line [1]) was 39.1%, the Activity [2] was 21.6% and the Activity [3] was 48.6%. For the same compound, the Activity [4] was 48.5%, the Activity [5] was 19.4% and the Activity [6] was 43.5%. It also gave an Activity (ECa-109 cell line [7]) of 59.9%, an Activity [8] of 29.5% and an Activity (ECa-109 cell line [9]) of 54%. The Activity [10] was 52.5%, the Activity (ECa-109 cell line [11]) was 72.3% and the Activity (ECa-109 cell line [12]) was “Active”. The Activity (ECa-109 cell line [13]) was 2.7%, the Activity (ECa-109 cell line [14]) was “Active” and the Activity [15] was 40%. It also gave an Activity (ECa-109 cell line [16]) of 12.2%, an Activity (ECa-109 cell line [17]) of 13.1% and an IC50 [18] of 83 µM. The Activity (ECa-109 cell line [19]) was 14%, the Activity [20] was “tde” and the Activity (ECa-109 cell line [21]) was “Active”. It also gave an Activity [22] of 25.1%, an Activity [23] of 45% and an Activity [24] of 47.1%. For the same compound, the Activity [25] was “Active”, the Activity (ECa-109 cell line [26]) was 78.4% and the Activity (ECa-109 cell line [27]) was 12.2%. It also gave an Activity (ECa-109 cell line [28]) of 12%, an Activity [29] of 28.5% and an Activity (ECa-109 cell line [30]) of 34%. It also gave an Activity (ECa-109 cell line [31]) of 2.5%, a viability at 72 h, 20 µM [32] of 70% and an Activity (ECa-109 cell line [33]) of 51.1%. It also gave an Activity (ECa-109 cell line [34]) of 47.7% and an Activity (ECa-109 cell line [35]) of 0.2%.
